# Measured values: patent US11919965B2, “Methods of treating multiple myeloma with bispecific anti-BCMA x anti-CD3 antibodies” (Regeneron Pharmaceuticals, Inc., priority 2019, dated 2024)
# How the values were obtained:
# [1] = system: Jurkat/NFATLuc.3C7 reporter cells with NCI-H929 cells (BCMA positive); experiment: Jurkat/NFATLuc reporter bioassay (T-cell activation); assay type: cell-based, human
# Description: (§1) Activity of the anti-BCMA×anti-CD3 bispecific antibodies were assessed in a Jurkat/NFATLuc reporter bioassay utilizing several cell lines with varying levels of BCMA surface expression. The Jurkat cells were engineered to express an NFAT-luciferase reporter (Jurkat/NFATLuc.3C7), and 50,000 Jurkat reporter cells were combined with 50,000 BCMA positive (Daudi, MM1-S, NCI-H929, OPM-2, RPMI-8226, MOLP-8, or Raji) or BCMA negative (HEK293) cells in Thermo Nunclon delta 96 well white microwell plates (Thermo Scientific, Cat #136102) in 50 ul of assay media (RPMI media with 10% FBS and 1% P/S/G). Three-fold serial dilutions of the BCMA×CD3 bispecific antibodies (mAb25441D or mAb25442D), or a bivalent anti-BCMA antibody (mAb21581) were immediately added in 50 uL of assay buffer. The plates were gently agitated and incubated in a 37° C., 5% CO2 incubator for 4-6 hours. NFAT-Luciferase activity was determined using Promega One-Glo (Cat #E6130) and a Perkin Elmer Envision plate reader. RLU were plotted in GraphPad Prism using a four-parameter logistic equation over a 12-point response curve to calculate EC50 values. The no antibody treatment condition for each dose-response curve is also included in the analysis as a continuation of the three-fold serial dilution and is represented as the lowest dose. The signal to noise (S:N) is determined by taking the ratio of the highest RLU on the curve to the lowest.
# [2] = system: Jurkat/NFATLuc.3C7 reporter cells with OPM-2 cells (BCMA positive); experiment: as above; assay type: cell-based, human
# Description: as §1
# [3] = system: BCMA+ MOLP-8-luciferase tumors; experiment: Xenogenic tumor model, i.v. MOLP-8-luciferase in PBMC-engrafted NSG mice, bioluminescence (Example 14); assay type: in vivo, mouse; details: 4 mg/kg
# Description: To determine the in vivo efficacy of anti-BCMA×anti-CD3 bispecific antibodies (Abs), a xenogenic tumor study was performed. On day −11, immunodeficient NOD.Cg-Prkdc^scidII2rg^tm1Wjl/SzJ (NSG) mice were intraperitoneally injected with 4×10^6 human peripheral blood mononuclear cells (PBMC) from a normal, healthy donor. On day 0, the mice were intravenously administered 2×10^6 BCMA^+ MOLP-8 human multiple myeloma tumor cells that were engineered to also express firefly luciferase (MOLP-8-luciferase cells). […] The mice were administered these Abs twice more on days 3 and 7, for a total of three doses. Tumor growth was assessed over 48 days by measuring tumor bioluminescence (BLI) in anesthetized animals. As a positive control, a group of mice (n=5) was given only MOLP-8-luciferase cells, but not PBMC or antibody.
# Implantation and measurement of xenogenic tumors: On day −11, immunodeficient NOD.Cg-Prkdc^scidII2rg^tm1Wjl/SzJ (NSG) mice were intraperitoneally injected with 5×10^6 human PBMC from a normal, healthy donor. On day 0, the mice were intravenously administered 2×10^6 BCMA^+ MOLP-8-luciferase cells. […] The mice were administered these Abs twice more on days 3 and 7, for a total of three doses. Tumor growth was assessed over 48 days by measuring tumor BLI in anesthetized animals. As a positive control, a group of mice (n=5) was given only MOLP-8-luciferase cells, but not PBMC or antibody.
# Measurement of xenogenic tumor growth: BLI imaging was used to measure tumor burden. Mice were injected IP with 150 mg/kg of the luciferase substrate D-luciferin suspended in PBS. Five minutes after this injection, BLI imaging of the mice was performed under isoflurane anesthesia using the Xenogen IVIS system. Image acquisition was carried out with the field of view at D, subject height of 1.5 cm, and medium binning level with automatic exposure time determined by the Living Image Software. BLI signals were extracted using Living Image software: regions of interest were drawn around each tumor mass and photon intensities were recorded as p/s/cm2/sr.
# B16/BCMA tumors = experiment: Syngenic tumor model in CD3-humanized mice (Example 16); assay type: in vivo, mouse
# Description: (§2) To determine the in vivo efficacy of anti-BCMA×anti-CD3 bispecific antibodies (Abs), a syngenic tumor study was performed in mice expressing human CD3. C57BL/6 mice that express human CD3deg in place of murine CD3deg (CD3-humanized mice) were subcutaneously implanted with either 0.5×10^6 B16 melanoma cells that have been engineered to express full-length human BCMA (B16/BCMA cells) or 1×10^6 MC38 colon carcinoma cells that have been engineered to express full-length human BCMA (MC38/BCMA). […] The mice were administered these Abs twice more on days 4 and 7 for a total of three doses, and tumor growth was assessed throughout the experiment.
# (§3) Implantation and measurement of syngenic tumors: C57BL/6 mice that express human CD3deg in place of murine CD3deg (CD3-humanized mice) were subcutaneously implanted with either 0.5×10^6 B16F10 melanoma cells that have been engineered to express full-length human BCMA (B16/BCMA cells) or 1×10^6 MC38 colon carcinoma cells that have been engineered to express full-length human BCMA (MC38/BCMA). […] The mice were administered these Abs twice more on days 4 and 7 for a total of three doses, and tumor growth was assessed throughout the experiment.
# (§4) Calculation of syngenic tumor growth and inhibition: In order to determine tumor volume by external caliper, the greatest longitudinal diameter (length in mm) and the greatest transverse diameter (width in mm) were determined. Tumor volumes based on caliper measurements were calculated by the formula: Volume (mm^3)=(length×width^2)/2.
# MC38/BCMA tumors = experiment: as above; assay type: in vivo, mouse
# Description: as §2, §3, §4
# [4] = system: Jurkat/NFATLuc.3C7 reporter cells with Daudi cells (BCMA positive); experiment: Jurkat/NFATLuc reporter bioassay (T-cell activation); assay type: cell-based, human
# Description: as §1
# [5] = system: Jurkat/NFATLuc.3C7 reporter cells with MOLP-8 cells (BCMA positive); experiment: as above; assay type: cell-based, human
# Description: as §1
substance,measurement,setting,value
"REGN5458: anti-BCMA×anti-CD3 bispecific antibody: mAb21581 BCMA heavy chain, mAb7221G CD3 heavy chain and common light chain; SEQ ID NOs 126, 127, 129",S:N (highest RLU to lowest),[1],39
same,S:N (highest RLU to lowest),[2],8
same,Radiance [p/s/cm2^2/sr] 8 days post-implantation (mean ± SEM),[3],5.66E+05 ± 1.97E+04 p/s/cm2^2/sr
same,Radiance [p/s/cm2^2/sr] 22 days post-implantation (mean ± SEM),[3],1.08E+06 ± 1.71E+05 p/s/cm2^2/sr
same,Radiance [p/s/cm2^2/sr] 24 days post-implantation (mean ± SEM),[3],1.02E+06 ± 1.99E+05 p/s/cm2^2/sr
same,Radiance [p/s/cm2^2/sr] 28 days post-implantation (mean ± SEM),[3],3.56E+06 ± 6.34E+05 p/s/cm2^2/sr
same,Radiance [p/s/cm2^2/sr] 30 days post-implantation (mean ± SEM),[3],6.92E+06 ± 1.40E+06 p/s/cm2^2/sr
same,Radiance [p/s/cm2^2/sr] 34 days post-implantation (mean ± SEM),[3],2.65E+07 ± 1.36E+07 p/s/cm2^2/sr
same,Radiance [p/s/cm2^2/sr] 37 days post-implantation (mean ± SEM),[3],4.52E+07 ± 1.40E+07 p/s/cm2^2/sr
same,tumor growth,[3]; three doses,delayed the growth
same,tumor growth,B16/BCMA tumors; 0.4 or 0.04 mg/kg,suppress the growth of both tumor lines in a dose-dependent manner
same,Average Tumor Size (mm3) ± SEM on Day 5,"B16/BCMA tumors; B16/BCMA Tumor, 0.04 mg/kg",3.3 ± 2.2 mm3
same,Average Tumor Size (mm3) ± SEM on Day 10,"B16/BCMA tumors; B16/BCMA Tumor, 0.04 mg/kg",15.4 ± 12.5 mm3
same,Average Tumor Size (mm3) ± SEM on Day 14,"B16/BCMA tumors; B16/BCMA Tumor, 0.04 mg/kg",81.4 ± 49.2 mm3
same,Average Tumor Size (mm3) ± SEM on Day 5,"B16/BCMA tumors; B16/BCMA Tumor, 0.4 mg/kg",0.0 ± 0.0 mm3
same,Average Tumor Size (mm3) ± SEM on Day 10,"B16/BCMA tumors; B16/BCMA Tumor, 0.4 mg/kg",0.0 ± 0.0 mm3
same,Average Tumor Size (mm3) ± SEM on Day 14,"B16/BCMA tumors; B16/BCMA Tumor, 0.4 mg/kg",8.1 ± 4.4 mm3
same,Average Tumor Size (mm3) ± SEM on Day 18,"B16/BCMA tumors; B16/BCMA Tumor, 0.4 mg/kg",47.1 ± 17.0 mm3
same,tumor growth,MC38/BCMA tumors; 0.4 or 0.04 mg/kg,suppress the growth of both tumor lines in a dose-dependent manner
same,Average Tumor Size (mm3) ± SEM on Day 5,"MC38/BCMA tumors; MC38/BCMA Tumor, 0.04 mg/kg",11.9 ± 2.9 mm3
same,Average Tumor Size (mm3) ± SEM on Day 10,"MC38/BCMA tumors; MC38/BCMA Tumor, 0.04 mg/kg",66.7 ± 22.5 mm3
same,Average Tumor Size (mm3) ± SEM on Day 14,"MC38/BCMA tumors; MC38/BCMA Tumor, 0.04 mg/kg",273.3 ± 115.3 mm3
same,Average Tumor Size (mm3) ± SEM on Day 18,"MC38/BCMA tumors; MC38/BCMA Tumor, 0.04 mg/kg",641.5 ± 309.8 mm3
same,Average Tumor Size (mm3) ± SEM on Day 10,"MC38/BCMA tumors; MC38/BCMA Tumor, 0.4 mg/kg",0.0 ± 0.0 mm3
same,Average Tumor Size (mm3) ± SEM on Day 14,"MC38/BCMA tumors; MC38/BCMA Tumor, 0.4 mg/kg",2.9 ± 2.9 mm3
same,Average Tumor Size (mm3) ± SEM on Day 18,"MC38/BCMA tumors; MC38/BCMA Tumor, 0.4 mg/kg",7.5 ± 7.5 mm3
"REGN5459: anti-BCMA×anti-CD3 bispecific antibody: mAb21581 BCMA heavy chain, mAb7221G20 CD3 heavy chain and common light chain; SEQ ID NOs 126, 128, 129",S:N (highest RLU to lowest),[4],25
same,S:N (highest RLU to lowest),[5],31
